Test results from BindingDB's records for doi:10.1016/0960-894X(95)00340-Y (1995).
Counter-ions that a name gives are not always drawn.

Molecular target: Leukotriene B4 receptor 1 (Cavia porcellus)
Experiment: Binding affinity against Guinea pig membrane LTB4 Receptor.

Ki	SMILES
0.017 µM	CCc1cc(CC)c(OCCCCCC(C)(C)c2nn[nH]n2)cc1O [sodium 2,4-diethyl-5-[6-methyl-6-(2H-1,2,3,4-tetraazol-5-yl)heptyloxy]phenol]
0.033 µM	CCCCCCc1cc(CC)c(OCCCCCC(C)(C)c2nn[nH]n2)cc1O [sodium 4-ethyl-2-hexyl-5-[6-methyl-6-(2H-1,2,3,4-tetraazol-5-yl)heptyloxy]phenol]
0.014 µM	CCCc1cc(CC)c(OCCCCCC(C)(C)c2nn[nH]n2)cc1O [Sodium salt of 4-Ethyl-5-[6-methyl-6-(2H-tetrazol-5-yl)-heptyloxy]-2-propyl-phenol]
